Measurements published in publication PMC10747462, “A Hydrolase Produced by Rhodococcus erythropolis HQ Is Responsible for the Detoxification of Zearalenone” (Toxins, 2023).

Test system: T1, ZenR
T1 construct: gene PXH69_30770
Conditions: read-out: Km,app; optimal conditions (55 °C, pH 8.0-9.0); 10-300 μM ZEN; no metal needed

T1 sequence (A0AAW6LW22 entry or part of it): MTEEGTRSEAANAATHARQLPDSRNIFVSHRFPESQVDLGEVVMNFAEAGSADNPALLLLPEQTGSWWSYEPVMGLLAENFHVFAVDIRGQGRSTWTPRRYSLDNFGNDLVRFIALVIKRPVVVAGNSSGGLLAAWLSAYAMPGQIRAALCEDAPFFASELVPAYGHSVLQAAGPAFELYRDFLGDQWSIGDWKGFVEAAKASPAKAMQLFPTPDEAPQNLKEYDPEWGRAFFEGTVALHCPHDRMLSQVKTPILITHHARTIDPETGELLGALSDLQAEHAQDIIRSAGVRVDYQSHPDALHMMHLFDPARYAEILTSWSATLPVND

C[C@H]1CCCC(=O)CCC/C=C/c2cc(O)cc(O)c2C(=O)O1 [Zearalenone] showed a Km of 21.14 ± 0.16 µM.
